According to US6387850B1, “Pesticide composition and method” (Application Technologies, Inc., priority 1998, dated 2002):

Columns and labels:
Test in all cases: Field weed control in glyphosate-tolerant soybeans, visual rating
Format in all cases: in vivo
Settings in all cases: 23 days after application, scale 0 = no, 10 = complete weed control
[1] = system: yellow foxtail (Setaria glauca)
Excerpt: (§1) Materials and Methods: Applications were made to glyphosate-tolerant soybeans on Jun. 10, 1998. Weed species present ranging in height from 5 to 20 cm included giant foxtail (Setaria faberii), barnyard grass (Echinochloa crus-galli), volunteer corn (Zea mays) and yellow foxtail (Setaria glauca) Treatments were applied using Spraying Systems Turbo TeeJet TT-11002 nozzles spaced 50 cm apart on the spray boom at 207 kPa spray pressure resulting in a spray volume application of […] liters per hectare.
(§2) Spray solutions consisted of two comparison levels of mineral hardness as measured by TDS in ppm. The original solution consisted of 10 ppm. The second solution measuring 400 ppm was established using calcium chloride at approximately 227 grams per 378 liters.
(§3) Herbicide applications of glyphosate in form of Roundup Ultra® (Monsanto Company) formulation were applied at four rates: 26, 53, 105 and 210 grams of acid equivalent per hectare (g ae/ha) A spray adjuvant, Array® at 4 kilograms per 378 liters of spray solution was added to the spray solution prior to the addition of the herbicide. Array was evaluated across herbicide and spray solution treatments. Array consists of a micro-homogenized combination of AMS (ammonium sulfate) fertilizer at 94.4% analysis 21-0-0-24 (nitrogen-phosphorus-potassium-sulfur) and DR 2000 (Rhodia Surfactants) at 5.6%, a short-chain guar-based polymer.

[2] = system: barnyard grass (Echinochloa crus-galli)
Excerpt: as §1, §2, §3

[3] = system: volunteer corn (Zea mays)
Excerpt: as §1, §2, §3

[4] = system: giant foxtail (Setaria faberii)
Excerpt: as §1, §2, §3

[5] = 26 g ae/ha, solution TDS 10 ppm, Array 4 kg/378 L Yes
[6] = 26 g ae/ha, solution TDS 10 ppm, Array No
[7] = 26 g ae/ha, solution TDS 400 ppm, Array 4 kg/378 L Yes
[8] = 26 g ae/ha, solution TDS 400 ppm, Array No
[9] = 53 g ae/ha, solution TDS 10 ppm, Array 4 kg/378 L Yes
[10] = 53 g ae/ha, solution TDS 10 ppm, Array No
[11] = 53 g ae/ha, solution TDS 400 ppm, Array 4 kg/378 L Yes
[12] = 53 g ae/ha, solution TDS 400 ppm, Array No
[13] = 105 g ae/ha, solution TDS 10 ppm, Array 4 kg/378 L Yes
[14] = 105 g ae/ha, solution TDS 10 ppm, Array No
[15] = 105 g ae/ha, solution TDS 400 ppm, Array 4 kg/378 L Yes
[16] = 105 g ae/ha, solution TDS 400 ppm, Array No
[17] = 210 g ae/ha, solution TDS 10 ppm, Array 4 kg/378 L Yes
[18] = 210 g ae/ha, solution TDS 10 ppm, Array No
[19] = 210 g ae/ha, solution TDS 400 ppm, Array 4 kg/378 L Yes
[20] = 210 g ae/ha, solution TDS 400 ppm, Array No

O=C(O)CNCP(=O)(O)O [Glyphosate, glyphosate]
Visual rating of weed control, Yellow Foxtail [1, 5]: 2
Visual rating of weed control, Yellow Foxtail [1, 6]: 2
Visual rating of weed control, Yellow Foxtail [1, 7]: 1
Visual rating of weed control, Yellow Foxtail [1, 8]: 0
Visual rating of weed control, Yellow Foxtail [1, 9]: 4
Visual rating of weed control, Yellow Foxtail [1, 10]: 3
Visual rating of weed control, Yellow Foxtail [1, 11]: 2
Visual rating of weed control, Yellow Foxtail [1, 12]: 1
Visual rating of weed control, Yellow Foxtail [1, 13]: 7
Visual rating of weed control, Yellow Foxtail [1, 14]: 5
Visual rating of weed control, Yellow Foxtail [1, 15]: 3
Visual rating of weed control, Yellow Foxtail [1, 16]: 2
Visual rating of weed control, Yellow Foxtail [1, 17]: 9
Visual rating of weed control, Yellow Foxtail [1, 18]: 8
Visual rating of weed control, Yellow Foxtail [1, 19]: 5
Visual rating of weed control, Yellow Foxtail [1, 20]: 5
Visual rating of weed control, Barnyard Grass [2, 5]: 3
Visual rating of weed control, Barnyard Grass [2, 6]: 2
Visual rating of weed control, Barnyard Grass [2, 7]: 1
Visual rating of weed control, Barnyard Grass [2, 8]: 0
Visual rating of weed control, Barnyard Grass [2, 9]: 5
Visual rating of weed control, Barnyard Grass [2, 10]: 4
Visual rating of weed control, Barnyard Grass [2, 11]: 2
Visual rating of weed control, Barnyard Grass [2, 12]: 1
Visual rating of weed control, Barnyard Grass [2, 13]: 7
Visual rating of weed control, Barnyard Grass [2, 14]: 5
Visual rating of weed control, Barnyard Grass [2, 15]: 3
Visual rating of weed control, Barnyard Grass [2, 16]: 2
Visual rating of weed control, Barnyard Grass [2, 17]: 10
Visual rating of weed control, Barnyard Grass [2, 18]: 9
Visual rating of weed control, Barnyard Grass [2, 19]: 6
Visual rating of weed control, Barnyard Grass [2, 20]: 5
Visual rating of weed control, Volunteer Corn [3, 5]: 2
Visual rating of weed control, Volunteer Corn [3, 6]: 1
Visual rating of weed control, Volunteer Corn [3, 7]: 1
Visual rating of weed control, Volunteer Corn [3, 8]: 0
Visual rating of weed control, Volunteer Corn [3, 9]: 4
Visual rating of weed control, Volunteer Corn [3, 10]: 3
Visual rating of weed control, Volunteer Corn [3, 11]: 2
Visual rating of weed control, Volunteer Corn [3, 12]: 1
Visual rating of weed control, Volunteer Corn [3, 13]: 8
Visual rating of weed control, Volunteer Corn [3, 14]: 5
Visual rating of weed control, Volunteer Corn [3, 15]: 3
Visual rating of weed control, Volunteer Corn [3, 16]: 2
Visual rating of weed control, Volunteer Corn [3, 17]: 10
Visual rating of weed control, Volunteer Corn [3, 18]: 9
Visual rating of weed control, Volunteer Corn [3, 19]: 6
Visual rating of weed control, Volunteer Corn [3, 20]: 5
Visual rating of weed control, Giant Foxtail [4, 5]: 3
Visual rating of weed control, Giant Foxtail [4, 6]: 2
Visual rating of weed control, Giant Foxtail [4, 7]: 1
Visual rating of weed control, Giant Foxtail [4, 8]: 0
Visual rating of weed control, Giant Foxtail [4, 9]: 4
Visual rating of weed control, Giant Foxtail [4, 10]: 3
Visual rating of weed control, Giant Foxtail [4, 11]: 2
Visual rating of weed control, Giant Foxtail [4, 12]: 1
Visual rating of weed control, Giant Foxtail [4, 13]: 8
Visual rating of weed control, Giant Foxtail [4, 14]: 6
Visual rating of weed control, Giant Foxtail [4, 15]: 3
Visual rating of weed control, Giant Foxtail [4, 16]: 2
Visual rating of weed control, Giant Foxtail [4, 17]: 10
Visual rating of weed control, Giant Foxtail [4, 18]: 9
Visual rating of weed control, Giant Foxtail [4, 19]: 6
Visual rating of weed control, Giant Foxtail [4, 20]: 5
